The results in this text go back to patent publication US20240174690A1, “ANNULATED 2-AMINO-3-CYANO THIOPHENES AND DERIVATIVES FOR THE TREATMENT OF CANCER” (BOEHRINGER INGELHEIM INTERNATIONAL GMBH, priority 2021, published 2024).

The target of one experiment is KRAS (WT)::SOS1 (Homo sapiens (Human), UniProt P01116, C118S). Put plainly: KRAS::SOS1 AlphaScreen binding assay, KRAS WT. The text has this: This assay can be used to examine the potency with which compounds according to the invention binding to (mutated) KRAS inhibit the protein-protein interaction between SOS1 and (mutated) KRAS e.g., KRAS WT, KRAS G12C, KRAS G12D, KRAS G12V, KRAS G13D. […] Low IC50 values in this assay setting are indicative of strong inhibition of protein-protein interaction between SOS1 and KRAS:
These assays measure the inhibitory effect of compounds on KRAS mutant protein-protein interactions using the Alpha Screen technology by Perkin Elmer.
The following (mutant) enzyme forms of KRAS and interacting proteins are used in these assays at the given concentrations: • KRAS (G12D) 1-169, N-terminal 6His-tag, C-terminal avi-tag (Xtal BioStructures, Inc.); final assay concentration 10 nM and SOS1 564-1049, N-terminal 229 GST-tag, TEV cleavage site (Viva Biotech Ltd); final assay concentration 5 nM; • KRAS (G12C) 1-169, N-terminal 6His-tag for purification, cleaved off, C-terminal avi-tag, biotinylated, mutations: C51S, C80L, C118S (in house); final assay concentration 7.5 nM and SOS1 564-1049, N-terminal 229 GST-tag, TEV cleavage site (Viva Biotech Ltd); final assay concentration 5 nM; • KRAS (G12V) 1-169, N-terminal 6His-tag for purification, cleaved off, C-terminal avi-tag, biotinylated, TEV cleavage site, mutation: C118S, GDP loaded (in house); final assay concentration 10 nM and SOS1 564-1049, N-terminal 229 GST-tag, TEV cleavage site (Viva Biotech Ltd); final assay concentration 10 nM; • KRAS (G13D) 1-169, N-terminal 6His-tag for purification, cleaved off, C-terminal avi-tag, biotinylated, TEV cleavage site, mutation: C118S, GDP loaded (in house); final assay concentration 10 nM and SOS1 564-1049, N-terminal 229 GST-tag, TEV cleavage site (Viva Biotech Ltd); final assay concentration 10 nM; • KRAS (WT) 1-169, N-terminal 6His-tag for purification, cleaved off, C-terminal avi-tag, biotinylated, TEV cleavage site, mutation: C118S, GDP loaded (in house); final assay concentration 10 nM and SOS1 564-1049, N-terminal 229 GST-tag, TEV cleavage site (Viva Biotech Ltd); final assay concentration 10 nM.
Test compounds dissolved in DMSO are dispensed onto assay plates (Proxiplate 384 PLUS, white, PerkinElmer; 6008289) using an Access Labcyte Workstation with the Labcyte Echo 55×. For the chosen highest assay concentration of 100 μM, 150 nL of compound solution are transferred from a 10 mM DMSO compound stock solution. A series of eleven fivefold dilutions per compound are transferred to the assay plate, compound dilutions are tested in duplicates. DMSO are added as backfill to a total volume of 150 nL.
The assays run on a fully automated robotic system in a darkened room below 100 Lux. To 150 nl of compound dilution 10 μl of a mix including KRAS mutant protein, SOS1 (final assay concentrations see above) and GDP nucleotide (Sigma G7127; final assay concentration 10 μM) in assay buffer (1×PBS, 0.1% BSA, 0.05% Tween 20) are added into columns 1-24.
After 30 minutes incubation time 5 μl of Alpha Screen bead mix in assay buffer are added into columns 1-23. Bead mix consists of AlphaLISA Glutathione Acceptor Beads (PerkinElmer, Cat No AL109) and AlphaScreen Streptavidin Donor Beads (PerkinElmer Cat No 6760002) in assay buffer at a final assay concentration of 10 μg/ml each.
Plates are kept at room temperature in a darkened incubator. After an additional 60 minutes incubation time the signal is measured in a PerkinElmer Envision HTS Multilabel Reader using the AlphaScreen specs from PerkinElmer.
Each plate contains up to 16 wells of a negative control depending on the dilution procedure (platewise or serial) (DMSO instead of test compound; with KRAS mutant::SOS1 GDP mix and bead mix; column 23) and 16 wells of a positive control (DMSO instead of test compound; with KRAS mutant::SOS1 GDP mix w/o bead mix; column 24).
As internal control known inhibitors of KRAS mutant::SOS1 interaction can be measured on each compound plate. […]

A further experiment deals with GP2D cells. Put plainly: GP2D proliferation assay (120 h) (colorectal cancer, G12D). The experiment is classed as cell-based. The method, then: GP2D Proliferation Assay (120 h) (Colorectal Cancer, G12D)
GP2D cells (ATCC No. CRL-5807) are dispensed into white 384-well plates, flat and white bottom (Perkin Elmer, 6007680) at a density of 500 cells per well in 40 μl DMEM (Sigma, D6429)+1×GlutaMAX (Gibco, 35050038)+10% FCS (fetal calf serum). […] Compounds (10 mM stock in DMSO) are added at logarithmic dose series using the HP Digital Dispenser D300 (Tecan), including DMSO controls and normalizing for added DMSO. For the TO time point measurement, untreated cells are analyzed at the time of compound addition. Plates are incubated for 120 h, and cell viability is measured using CellTiter-Glo luminescent cell viability reagent (Promega product code G7570). Viability (stated as percent of control) is defined as relative luminescence units RLU of each well divided by the RLU of cells in DMSO controls. IC50 values are determined from viability measurements by non-linear regression using a four parameter model.

The next experiment relates to MKN1 cells. The experiment is described as follows: MKN1 CTG proliferation assay (120 h) (gastric cancer, wt amplified). The class given is cell-based. Conditions: Homo sapiens. The procedure: MKN1 CTG Proliferation Assay (120 h) (Gastric Cancer, Wt Amplified)
MKN1 cells (JCRB0252) are dispensed into white 384-well plates, flat and white bottom (Corning Costar, PNr.: 3570) at a density of 400 cells per well in 50 μL RPMI 1640 (PAN-Biotech, PNr.: P04-18047)+10% FCS (HyClone, PNr.: SH30084.03) (assay 1) or into white 384-well plates, flat and white bottom (Perkin Elmer, 6007680) at a density of 500 cells per well in 40 μl RPMI (Gibco, PNr.: 21875034)+10% FCS (HyClone, PNr.: SH30084.03) (assay 2) or into black 384-well plates, flat and clear bottom (Greiner, PNr. 781091) at a density of 200 cells per well in 60 μl RPMI-1640 (Gibco #A10491)+10% FCS (HyClone, PNr.: SH30084.03)+PenStrep (Gibco, PNr.15140-122) (assay 3). […] Compounds (10 mM stock in DMSO) are added at logarithmic dose series using the HP Digital Dispenser D300 (Tecan) (assay 1+2) or the ECHO acoustic liquid handler system (Beckman Coulter) (assay 3), including DMSO controls and normalizing for added DMSO. Plates are incubated for 120 h, and cell viability is measured using CellTiter-Glo luminescent cell viability reagent (Promega product code G7570). Viability (stated as percent of control) is defined as relative luminescence units RLU of each well divided by the RLU of cells in DMSO controls. IC50 values are determined from viability measurements by non-linear regression using a four-parameter model.

Setting [1] is: MKN-1, assay 3, CTG 120 h, read-out: MKN1 (assay 3) IC50.

The structures appear in SMILES notation. Read-outs that look alike come from different tables or passages of the source. Bounds are passed on as bounds.

KRAS (WT)::SOS1, sequence (P01116 other isoform, or with tags, fused parts or gaps C118S): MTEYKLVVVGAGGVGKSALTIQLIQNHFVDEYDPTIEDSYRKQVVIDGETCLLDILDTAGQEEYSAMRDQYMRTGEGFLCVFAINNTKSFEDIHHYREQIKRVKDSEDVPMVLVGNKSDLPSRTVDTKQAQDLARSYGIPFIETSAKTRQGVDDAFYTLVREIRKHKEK

As usually defined, the IC50 is the concentration that gives 50% inhibition. Turning to `C[C@H](Oc1cc(N2CC[C@H](N(C)C)C2)nc(-c2noc3c2CCC[C@@]32CCCc3sc(N)c(C#N)c32)n1)[C@@H]1CCCN1C` [II-49], the concentration for half-maximal inhibition (IC50) is 20 nM on KRAS (WT)::SOS1; 6 nM in the experiment on GP2D cells; over 3000 nM in the experiment on MKN1 cells (MKN-1, assay 2, CTG 120 h, read-out: MKN1 (assay 2) IC50); 501 nM with MKN1 cells (setting [1]).

For the compound `C[C@H](Oc1cc(-n2cc3c(n2)CCNC3)nc(-c2noc3c2CCC[C@@]32CCCc3sc(N)c(C#N)c32)n1)[C@@H]1CCCN1C` [II-53], the concentration for half-maximal inhibition (IC50) at KRAS (WT)::SOS1 is 5 nM; with GP2D cells, 29 nM; in the experiment with MKN1 cells (setting [1]) it was 994 nM.

Turning to `C[C@H](Oc1cc(N2CCN(C)CC2)nc(-c2noc3c2CCC[C@@]32CCCc3sc(N)c(C#N)c32)n1)[C@@H]1CCCN1C` [II-55], the IC50 on KRAS (WT)::SOS1 was found to be 10 nM; with GP2D cells, 46 nM; with MKN1 cells (setting [1]), 876 nM.

As for `C[C@H](Oc1cc([C@@H]2CCOC2)nc(-c2noc3c2CCC[C@@]32CCCc3sc(N)c(C#N)c32)n1)[C@@H]1CCCN1C` [II-94], the half-maximal inhibitory concentration (IC50) on KRAS (WT)::SOS1 is 3 nM; in the experiment on GP2D cells it was 26 nM; with MKN1 cells (MKN-1, assay 1, CTG 120 h, read-out: MKN1 (assay 1) IC50), 32 nM; with MKN1 cells (setting [1]), 51 nM.
